Data taken from US5032404A, “Lipsome-incorporation of polyenes” (priority 1989, dated 1991).
In brackets after ≈: the same amount, converted by molar mass. Where two headings read alike, the source gives them in different places. One block for each molecule: values may come before it.

Experiments:
C. albicans [1] = assay: Antifungal activity (MIC) of free versus liposomal polyenes; assay type: cell-based
Experimental: The antifungal activity of free-verses liposomal-small polyenes was determined in vivo. These small polyenes included filipin, lagosin and natamycin.
The in vivo toxicity of liposomal small polyenes was evaluated in groups of 8 Hale-Stone mice (6-8 weeks old, body weight =20-25g; University of Texas Science Park, Bastrop, Tex.). Liposomal polyenes were prepared following the protocol set forth in Example 2. Each liposomal-small polyene formulated and evaluated in this study, listed in table 6, was administered to a group of normal and a group of infected mice. These infected mice were prepared by injection with 0.2 ml. of C. albicans according to the protocol set forth in Example 6.
The data on MIC of various liposomal-mepartricin preparations in normal and infected mice is presented for each of the small polyenes (filipin, lagasin natamysin and nystatin) and large polyenes in Table 6.

HTLV-III/LAV = conditions: monocyte-related cell line H9; Schaffner et al. (1986); cited from earlier work
[2] = test system: Candida albicans (strain 336); assay: In vitro fungal inhibition (MIC), twofold serial dilution; assay type: cell-based
Experimental: The antifungal activity of free- verses liposomalhamycin against Candida albicans (strain 336) was determined in vitro. All strains of yeast were grown overnight at 37° C. on Sabouraud dextrose agar (SDA) plates. All molds were grown at 30° C. on SDA for 3 to 10 days prior to collection of spores. The inoculum was then processed for susceptibility testing as described earlier (Hopfer et al. (1984), Antimicrob. Agents Chemotherap., 25:387-389). A twofold serial dilutron method (Shadomy et al., In E. H. Lennette, et al., (eds.) Manual of Clinical Microbiology, 3rd ed. American Society for Microbiology, Washington, D.C. , pp. 647-653 (1980)) adapted to microtiter plates was used to determine the minimal inhibitory concentration (MIC) of the drugs.
The antifungal activity of free- versus liposomal-lucensomycin against Candida albicans (Strain 336) was determined in vitro. […] The MIC of free-lucensomycin was compared with that of liposomal-lucensomycin.

[3] = principal sterol of fungal versus human cell membranes; cited from earlier work
human RBCs = assay: In vitro toxicity: lysis of human red blood cells (hemoglobin release at 540 nm); conditions: 45 min
Text: Lysis of human red blood cells (RBCs) was quantitated by measuring the release of hemoglobin in the supernatants at 540 nm, as described previously (Mehta et al., (1984) Biochem. Biophys, Acta., 770:230-234). […] Release of hemoglobin by hypotonic lysis of the same number of human RBCs by water was taken as 100% positive control, while cells treated with PBS were taken as negative controls.
Lysis of human red blood cells (RBCs) was quantitated by measuring the release of hemoglobin in the supernatants at 540 nm, as described previously (Mehta et al., Biochem. Biophys, Acta., Vol. 770, pp. 230-234 (1984)). […] Release of hemoglobin by hypotonic lysis of the same number of human RBCs by water was taken as 100% positive control, while cells treated with PBS were taken as negative controls.
Lysis of human red blood cells (RBCs) was quantitated by measuring the release of hemoglobin in the supernatants at 540 nm, as described previously (Mehta et al., (1984) Biochem. Biophys. Acta., 770:230-234). […] Release of hemoglobin by hypotonic lysis of the same number of human RBCs by water was taken as 100% positive control, while cells treated with PBS were taken as negative controls.
Lysis of human red blood cells (RBCs) was quantitated by measuring the release of hemoglobin in the supernatants at 540 nm, as described previously (Mehta, et al. (1984) Biochem. Biophys. Acta, 770:230-234). […]

C. albicans [4] = assay: Single dose therapy of disseminated Candida albicans infection in mice; assay type: in vivo; conditions: free-hamycin from 5 microgram/mouse, versus control untreated group
Experimental: Hale-Stoner mice, six to eight weeks old (body weight, 20-25 g) were purchased from The University of Texas Science Park (Bastrop, TX). The mice (eight per group) were injected with 0.2 ml of C. albicans cell suspension containing 7×10^5 colony-forming units (cfu) via the tail vein. This concentration of cells was consistent in producing a disseminated infection after 48 hr, affecting primarily the liver, spleen, lungs and kidneys.
Mice were infected with C. albicans as described in Example 7. […] The survival of the animals in each group was recorded.

Molecule: C[C@@H]1[C@H](O)[C@@H](C)/C=C/C=C/C=C/C=C/C=C/C=C/C=C/[C@H](O[C@@H]2O[C@H](C)[C@@H](O)[C@H](N)[C@@H]2O)C[C@@H]2O[C@](O)(C[C@@H](O)C[C@@H](O)[C@H](O)CC[C@@H](O)C[C@@H](O)CC(=O)O[C@H]1C)C[C@H](O)[C@H]2C(=O)O [Amphotericin B]
MIC, free (C. albicans [1]): 0.4 µg/mL (≈ 0.433 µM)
Replication of HTLV-III/LAV (in words) (HTLV-III/LAV): inhibited

MIC, free (C. albicans [1]): 5.0 µg/mL (≈ 15 µM)
Molecule: COc1cc2c(c3oc(-c4ccccc4)cc(=O)c13)C=CC(C)(C)O2 [Candidin, candidin]

Molecule: CCCCC[C@@H](O)[C@H]1C(=O)O[C@H](C)[C@@H](O)/C=C/C=C/C=C/C=C/C=C(\C)[C@@H](O)C[C@H](O)C[C@H](O)C[C@H](O)C[C@H](O)C[C@H](O)C[C@@H]1O [Filipin, filipin]
MIC, free (C. albicans [1]): 8.0 to 16.0 µg/mL

Molecule: CCCCC[C@@H](O)[C@H]1C(=O)O[C@H](C)[C@@H](O)/C=C/C=C/C=C/C=C/C=C(\C)[C@@H](O)[C@H](O)[C@H](O)C[C@H](O)C[C@H](O)C[C@H](O)C[C@H](O)C[C@@H]1O [Lagosin, lagosin]
MIC, free (C. albicans [1]): 4.0 µg/mL (≈ 5.96 µM)

Molecule: CCCCC1C/C=C/C=C/C=C/C=C/C(O[C@@H]2O[C@H](C)[C@@H](O)[C@H](N)[C@@H]2O)CC2OC(O)(CC(O)CC3OC3/C=C/C(=O)O1)CC(O)C2C(=O)O (some centres unmarked) [Lucensomycin, lucensomycin]
Antifungal activity (in words) ([2]; in vitro, with or without cholesterol where stated): high antifungal activity
Maximum solubility (DMFA): 10 mg/mL
Solubility in DMFA at 1 mg/ml (DMFA, 1 mg/ml): Yes
Maximum solubility (DMSO): 20 mg/mL
Solubility in DMSO at 1 mg/ml (DMSO, 1 mg/ml): Yes
Maximum solubility (methanol): 0.5 mg/mL
Solubility in methanol at 1 mg/ml (methanol, 1 mg/ml): Partial
Solubility in water/saline at 1 mg/ml (water/saline, 1 mg/ml): nil
Avidity for ergosterol compared to cholesterol (in words) [3]: greater avidity for ergosterol
Lysis of human RBCs (human RBCs; 10 mg/ml, 37° C.): 70%
Lysis of human RBCs (human RBCs; 30 mg/ml, liposomes without cholesterol): approximately 100%

MIC, free (C. albicans [1]): 4.0 µg/mL (≈ 6.01 µM)
Molecule: C[C@@H]1C/C=C/C=C/C=C/C=C/[C@H](O[C@@H]2O[C@H](C)[C@@H](O)[C@H](N)[C@@H]2O)C[C@@H]2O[C@](O)(C[C@@H](O)C[C@H]3O[C@@H]3/C=C/C(=O)O1)C[C@H](O)[C@H]2C(=O)O [Natamycin, natamycin]

Molecule: C[C@@H]1[C@H](O)[C@@H](C)/C=C/C=C/CC/C=C/C=C/C=C/C=C/C(O[C@H]2O[C@H](C)[C@@H](O)[C@H](N)[C@@H]2O)CC2O[C@](O)(CC(O)C(O)CCC(O)CC(O)CC(O)CC(=O)O[C@H]1C)CC(O)C2C(=O)O (some centres unmarked) [Nystatin]
MIC, free (C. albicans [1]): 1.0 µg/mL (≈ 1.08 µM)

Molecule: COC(=O)[C@H]1[C@@H]2C[C@@H](O[C@@H]3O[C@H](C)[C@@H](O)[C@H](N)[C@@H]3O)/C=C/C=C/C=C/C=C/C=C/C=C/C=C/[C@H](C)[C@@H](O)[C@@H](C)[C@H](C)OC(=O)C[C@H](O)C[C@H](O)CC[C@@H](O)[C@H](O)C[C@H](O)C[C@](O)(C[C@@H]1O)O2 [amphotericin B methyl ester ascorbate]
Replication of HTLV-III/LAV (in words) (HTLV-III/LAV): inhibited

Molecule: hamycin
MIC ([2]; Candida albicans strain 336, in vitro): 0.25 microgram/ml
Survival of infected mice (in words) (C. albicans [4]): None of the doses tested improved the survival of infected mice
Avidity for ergosterol compared to cholesterol (in words) [3]: greater avidity for ergosterol

Molecule: mepartricin
MIC, free (C. albicans [1]): 2.0 to 4.0 µg/mL
